One assay is filed under the species Homo sapiens. Nature of the assay: tissue or blood. Format: functional, organism-based. The conditions noted are these: Plasma.
Another assay concerns the target T1, Thromboxane-A synthase (Homo sapiens, UniProt P24557).
T1 sequence (P24557 whole entry): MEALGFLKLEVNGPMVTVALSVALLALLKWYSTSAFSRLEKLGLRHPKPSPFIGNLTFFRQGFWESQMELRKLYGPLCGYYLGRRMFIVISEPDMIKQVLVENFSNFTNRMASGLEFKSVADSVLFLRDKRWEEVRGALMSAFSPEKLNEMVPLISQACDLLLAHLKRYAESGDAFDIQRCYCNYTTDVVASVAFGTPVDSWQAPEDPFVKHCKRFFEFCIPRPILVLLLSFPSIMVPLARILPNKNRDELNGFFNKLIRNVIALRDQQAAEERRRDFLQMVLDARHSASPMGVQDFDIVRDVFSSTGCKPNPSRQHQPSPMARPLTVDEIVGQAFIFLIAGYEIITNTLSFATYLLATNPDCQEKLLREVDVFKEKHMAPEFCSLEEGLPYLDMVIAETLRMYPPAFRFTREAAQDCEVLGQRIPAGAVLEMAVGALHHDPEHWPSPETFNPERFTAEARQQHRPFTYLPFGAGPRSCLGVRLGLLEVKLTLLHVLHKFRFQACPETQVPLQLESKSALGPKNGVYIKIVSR

The target in the next assay is T2, Thromboxane A2 receptor (Homo sapiens, UniProt P21731).
T2 sequence (P21731 whole entry): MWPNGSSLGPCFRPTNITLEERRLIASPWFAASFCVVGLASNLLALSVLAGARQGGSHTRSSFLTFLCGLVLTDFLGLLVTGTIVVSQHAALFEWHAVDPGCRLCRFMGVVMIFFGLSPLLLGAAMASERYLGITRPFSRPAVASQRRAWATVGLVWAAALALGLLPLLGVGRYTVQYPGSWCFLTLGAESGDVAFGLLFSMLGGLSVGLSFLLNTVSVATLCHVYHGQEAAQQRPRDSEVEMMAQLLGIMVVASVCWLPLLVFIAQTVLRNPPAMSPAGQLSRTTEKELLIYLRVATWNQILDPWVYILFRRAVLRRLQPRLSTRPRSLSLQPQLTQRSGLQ

Where “and” joins values, the source holds several entries; their conditions need not be identical. Equal entries are not always repeated.

Description for Homo sapiens: Inhibition of collagen-induced platelet aggregation in human platelet-rich plasma.
Description for Thromboxane-A synthase: Inhibition test of thromboxane A2 synthetase in human gel-filtered platelets.

Regarding `O=C(O)CCC/C=C(\c1ccc(NS(=O)(=O)c2ccc(Cl)cc2)cc1)c1cccnc1`, the EC50 in the assay filed under Homo sapiens is > 100000 nM. Also, the figures for the IC50 on Thromboxane-A synthase and against Thromboxane A2 receptor were 5 nM and 270 nM, respectively.
Taken in the same sequence, the figures for `O=S(=O)(NCCc1ccc(/C(=C\CCCc2nnn[nH]2)c2cccnc2)cc1)c1ccc(Cl)cc1` were 9500 nM, 21 nM and 12 nM.
In the same order, the values of `CCCCS(=O)(=O)NCCc1ccc(/C(=C\CCCC(=O)O)c2cccnc2)cc1` are 3400 nM, 5 nM and 1100 nM.
Take `O=C(O)CCCC/C=C(\c1ccc(CCNS(=O)(=O)c2ccc(Cl)cc2)cc1)c1cccnc1`: in the assay listed under Homo sapiens, the EC50 came out at 1500 nM. Also, the figures for the 50% inhibitory concentration (IC50) at Thromboxane-A synthase and at Thromboxane A2 receptor were 24 nM and 19 nM, respectively.
In the same order, the values of `Cc1ccc(S(=O)(=O)NCCc2ccc(/C(=C\CCCC(=O)O)c3cccnc3)cc2)cc1` are 700 nM, 5 nM and 33 nM.
Taken in the same sequence, the figures for `CN(C)C(=O)CCC/C=C(\c1ccc(CCNS(=O)(=O)c2ccc(Cl)cc2)cc1)c1cccnc1` were 40000 nM, 44 nM and 300 nM.
The molecule `O=C(O)CCC(CCCCNS(=O)(=O)c1ccc(Cl)cc1)CCCc1cccnc1` (centres undefined) returned an EC50 in the assay filed under Homo sapiens of 5800 nM. Also, the IC50 is 6 nM and 4 nM at Thromboxane-A synthase; 6 nM against Thromboxane A2 receptor.
Take `O=C(O)CCC/C=C(\c1ccc(CCN(CCC(=O)O)S(=O)(=O)c2ccc(Cl)cc2)cc1)c1cccnc1`: in the assay filed under Homo sapiens, the EC50 is > 100000 nM. For the same molecule, the IC50 against Thromboxane-A synthase was 100 nM; on Thromboxane A2 receptor it was 120 nM.

In general, EC50 refers to the concentration at which the effect is half-maximal. Read a high EC50 as lower potency in that assay. Broadly, the IC50 is the concentration needed to halve the response being measured. Lower therefore signals higher potency.

These data come from ChEMBL document CHEMBL1127824, “6,6-Disubstituted Hex-5-enoic acid derivatives as combined thromboxane A2 receptor antagonists and synthetase inhibitors” (J Med Chem, 1994).
